PubChem BioAssay (NCI)
Where “and” joins values, the source holds several entries; their conditions need not be identical. Equal values may be shown once.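 48-hour exposure; five concentrations; linearly interpolated endpoints. At the GI50, growth is halved. The concentration for full growth arrest is given as TGI.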

What was measured:
Test in all cases: NCI anticancer screen, dose series, 48 h
[1] = tested on: LOX IMVI melanoma
[2] = tested on: HCT-15 colon
[3] = tested on: SF-268 CNS
[4] = tested on: DU-145 prostate
[5] = tested on: UACC-257 melanoma
[6] = tested on: SK-MEL-28 melanoma
[7] = tested on: M14 melanoma
[8] = tested on: CAKI-1 renal

Structure (SMILES)	GI50 [1]	TGI [1]	GI50 [2]	TGI [2]	GI50 [3]	TGI [3]	GI50 [4]	TGI [4]	GI50 [5]	TGI [5]	GI50 [6]	TGI [6]	GI50 [7]	TGI [7]	GI50 [8]	TGI [8]
Cc1cc2c(cc1Cl)SC1=NN(C)C(c3ccccc3O)N1S2(=O)=O (stereo unspecified)	40.5 µM	> 100 µM	54 µM	> 100 µM	61.6 µM	> 100 µM	65.7 µM	> 100 µM	> 100 µM	> 100 µM	86.2 µM	> 100 µM	47.5 µM	> 100 µM	> 100 µM	> 100 µM
COc1ccc(N=C2NN=C(c3c[nH]c4ccccc34)CS2)cc1OC	6.1 µM	> 100 µM	4.02 µM	> 100 µM	8.65 µM	> 100 µM	19.5 µM	> 87.7 µM	11.1 µM	> 56.6 µM	15.3 µM	> 90.4 µM	4.49 µM	> 100 µM	8.05 µM	> 79.1 µM
Cn1cc(-c2nn3cc(-c4cccs4)nc3s2)c2cc(F)ccc21	–	–	0.606 µM	> 100 µM	6.58 µM	> 100 µM	3.67 µM	31.6 µM	7.9 µM	> 100 µM	7.23 µM	> 100 µM	1.05 µM	> 100 µM	2.42 µM	57.4 µM
COc1cc(C(=O)/C=C/c2c(C(F)(F)F)nc3sccn23)cc(OC)c1OC	1.36 µM	2.89 µM	1.8 µM	5.39 µM	1.74 µM	3.57 µM	1.41 µM	2.86 µM	1.9 µM	4.2 µM	1.69 µM	3.1 µM	–	–	1.76 µM	5.31 µM
O=c1[nH]c(-c2ccccn2)nc2sc3c(c12)CCCCCC3	1.09 µM	> 100 µM	2.35 µM	> 100 µM	8.66 µM	> 100 µM	6.73 µM	> 100 µM	> 100 µM	> 100 µM	6.01 µM	> 100 µM	4.09 µM	> 100 µM	3.29 µM	> 100 µM
C=CC[PH+](c1ccccc1)c1ccccc1.C=CC[PH+](c1ccccc1)c1ccccc1.[Cl][Pt][Cl]	2.1 µM	4.7 µM	3.87 µM	16.8 µM	14.2 µM	32 µM	12.7 µM	30.2 µM	11.9 µM	31.6 µM	7.69 µM	21.3 µM	6.35 µM	22.3 µM	10.6 µM	22.7 µM
N#Cc1ccc(N2Cc3cc(Cl)ccc3OC3=C2C(=O)N(Cc2ccccc2)C3=O)cc1	1.47 µM	2.85 µM	0.628 µM	2.95 µM	1.75 µM	3.89 µM	1.48 µM	2.82 µM	1.35 µM	2.85 µM	1.62 µM	3.41 µM	1.49 µM	3.68 µM	1.39 µM	2.78 µM
Cn1c(COC(=O)NCCN2CCOCC2)nc2c(N3CCOCC3)nc(-c3ccccc3)nc21	0.256 µM	1.1 µM	0.46 µM	1.87 µM	1.38 µM	2.95 µM	1.25 µM	2.68 µM	1.44 µM	3.16 µM	1.51 µM	2.94 µM	1.15 µM	2.58 µM	0.449 µM	1.72 µM
O=[N+]([O-])c1cccc(-c2ncc(-c3ccc(Cl)cc3Cl)[nH]2)c1	3.35 µM	8.55 µM	2.39 µM	6.82 µM	2.92 µM	9.57 µM	4.46 µM	10.5 µM	9.7 µM	29 µM	1.79 µM	3.72 µM	8.35 µM	26.9 µM	1.82 µM	4.71 µM
CCCCCCN1C(=O)CN=C1Nc1ccc2cc3ccc(NC4=NCC(=O)N4CCCCCC)cc3nc2c1	–	–	–	–	2.02 µM	5.72 µM	1.94 µM	4.21 µM	3.34 µM	9.74 µM	2.21 µM	5.92 µM	1.95 µM	4.84 µM	–	–
CCCCCCCCCCCCCCCCCC1=NC(C)(C)CN1CCO	1.54 µM	2.87 µM	1.61 µM	3 µM	1.8 µM	3.27 µM	1.81 µM	3.27 µM	1.8 µM	3.57 µM	1.81 µM	3.2 µM	1.81 µM	3.49 µM	1.6 µM	3.37 µM
CCCOc1c2cc(COC3OC(CO)C(O)C(O)C3O)cc1Cc1cc(COC3OC(CO)C(O)C(O)C3O)cc(c1OCCC)Cc1cc(COC3OC(CO)C(O)C(O)C3O)cc(c1OCCC)Cc1cc(COC3OC(CO)C(O)C(O)C3O)cc(c1OCCC)C2 (stereo unspecified)	> 100 µM and 58.6 µM and 17.6 µM	> 100 µM and 31.4 µM	> 100 µM and 42.1 µM	> 100 µM	> 100 µM and 80.4 µM and 17.5 µM	> 100 µM and 33.3 µM	> 100 µM and 35.1 µM	> 100 µM	67.1 µM and > 100 µM and 33.6 µM	> 100 µM	> 100 µM and 14.5 µM	> 100 µM and 29 µM	61.1 µM and 56.1 µM and 16.2 µM	> 100 µM and 32.4 µM	> 100 µM and 25 µM	> 100 µM and 64.8 µM
C#Cc1ccc(-n2c(/C=C/c3cc(OC)c(OC)c(OC)c3)nc3ncccc3c2=O)cc1	4.61 µM	64 µM	5.58 µM	> 100 µM	5.33 µM	98 µM	5.36 µM	> 100 µM	9.74 µM	> 100 µM	34.6 µM	> 100 µM	4.94 µM	> 100 µM	6.07 µM	> 100 µM
N#CC1(C#N)C2C=CC(C3CCC=C32)C1(C#N)C#N (stereo unspecified)	–	> 10 µM	–	> 10 µM	–	> 10 µM	–	> 10 µM	–	> 10 µM	–	> 10 µM	–	> 10 µM	–	> 10 µM
Cc1nc(C(N)=S)sc1C(=O)CC(=O)C(=O)Nc1cccc(Cl)c1C	–	> 100 µM	–	> 100 µM	–	> 100 µM	–	–	–	> 100 µM	–	> 100 µM	–	> 100 µM	–	> 100 µM
COc1ccc(-n2nc(C)c3c2N(C)C2(C)C[C@@H]4C3(C)[C@@H]3CC4(C2)N(C)c2c(c(C)nn2-c2ccc(OC)cc2)[C@H]3C)cc1 (stereo partly specified)	–	–	–	–	4.08 µM	70.2 µM	23 µM	> 100 µM	–	–	15.2 µM	> 100 µM	–	–	–	–
Cc1cc(N)c2ccccc2[n+]1CCCCCCCCCC[n+]1c(C)cc(N)c2ccccc21	–	2.29 µM	1.25 µM and 3.67 µM	> 50 µM and 25.9 µM and 81.9 µM	–	3.49 µM and 10.3 µM and 32.5 µM	0.23 µM	2.59 µM and 20.2 µM	–	–	0.277 µM and 1.18 µM	1.33 µM and 5.09 µM and 3.28 µM	0.584 µM	3.25 µM and 18.5 µM and 7.33 µM	1.37 µM and 3.27 µM	> 50 µM and 27.7 µM and 18.6 µM

Structure (SMILES)	GI50 [1]	TGI [1]	GI50 [2]	TGI [2]	GI50 [3]	TGI [3]	GI50 [4]	TGI [4]	GI50 [5]	TGI [5]	GI50 [6]	TGI [6]	GI50 [7]	TGI [7]	GI50 [8]	TGI [8]
OCCCCC#Cc1ccccc1C#Cc1cnccn1	32 µM	> 100 µM	33.3 µM	> 100 µM	32.4 µM	> 100 µM	13.8 µM	> 100 µM	26 µM	62 µM	43.4 µM	> 100 µM	–	–	26.4 µM	> 100 µM
CCOC(=O)Cc1csc(NC(=O)C(OC(=O)c2ccc(N)cc2)c2ccccc2)n1 (stereo unspecified)	41.7 µM	> 100 µM	43.5 µM	> 100 µM	35.5 µM	> 100 µM	48.3 µM	> 100 µM	40.5 µM	> 100 µM	30.9 µM	98 µM	22.6 µM	62.5 µM	39.6 µM	> 100 µM
CCNC(=O)Oc1ccc(/C(=C(\C)c2ccc(Cl)cc2)c2ccc(OCCN3CCCCC3)cc2)cc1	1.93 µM	3.94 µM	2.49 µM	7.72 µM	6.04 µM	20.9 µM	10.9 µM	23.7 µM	2.38 µM	5.12 µM	1.83 µM	3.73 µM	1.87 µM	3.8 µM	–	–
O=c1[nH]c2cc(O)ccc2n2cc3c(F)cccc3c12	0.748 µM	> 100 µM	0.536 µM	> 100 µM	2.57 µM	> 100 µM	6.78 µM	> 100 µM	31.9 µM	> 100 µM	–	–	1.38 µM	> 100 µM	0.903 µM	> 100 µM
CC(=O)C1=C(O)/C(=C\c2ccco2)OC1=O	–	> 10 µM	–	> 10 µM	–	> 10 µM	–	> 10 µM	–	> 10 µM	–	> 10 µM	–	> 10 µM	–	> 10 µM
CCSc1nc(N)c2cnn(C)c2n1	33 µM	> 100 µM	32 µM	> 100 µM	33 µM	85.1 µM	40 µM	> 100 µM	67.1 µM	> 100 µM	62.3 µM	> 100 µM	52 µM	> 100 µM	25.9 µM	> 100 µM
CC(C)C[C@H](NC(=O)[C@@H](O)[C@H](N)Cc1ccccc1)C(=O)O	–	> 100 µM	–	> 100 µM	–	> 100 µM	–	> 100 µM	–	> 100 µM	–	> 100 µM	–	> 100 µM	–	> 100 µM
CN1C(=O)C23CC4=CC=CC(O)C4N2C(=O)C1(CO)SS3 (stereo unspecified)	–	0.492 µM	–	0.419 µM	–	0.489 µM	–	0.318 µM	–	0.936 µM	–	2.26 µM	–	0.295 µM	–	0.759 µM
O=c1c2cc(F)ccc2sc2c(NCCCN3CCCC3)nc3ccccc3c12	1.73 µM	3.28 µM	1.82 µM	3.53 µM	–	–	2.07 µM	3.94 µM	1.97 µM	3.98 µM	1.97 µM	3.85 µM	1.86 µM	3.47 µM	1.48 µM	2.95 µM
CC(=O)N[C@@H]1CCC[C@H](C(=O)Nc2cc(-c3cnn4c3CC(C)(C)C4)c(Cl)cn2)C1	< 0.01 µM	> 100 µM	0.0225 µM	> 100 µM	< 0.01 µM	0.431 µM	0.0102 µM	> 100 µM	0.0227 µM	12 µM	< 0.0133 µM	0.342 µM	–	–	< 0.01 µM	> 100 µM
O=C(CC(C(=O)O)N1CCOCC1)c1ccccc1 (stereo unspecified)	–	33.6 µM	–	40.8 µM	–	44.6 µM	–	69.4 µM	–	27.2 µM	–	36.6 µM	–	30.8 µM	–	–
COc1cc(OC)cc(N2CCN(C(=O)Nc3nc4cc(F)ccc4nc3OC)CC2)c1	0.0506 µM and 0.0658 µM and 0.0352 µM	17.6 µM and 13.6 µM	0.0318 µM and 0.0346 µM and 0.034 µM	> 100 µM	0.0912 µM and 0.094 µM and 0.0661 µM	75.7 µM and 34.1 µM	0.0438 µM and 0.0429 µM and 0.0403 µM	> 100 µM and 34.9 µM	20.1 µM and 12.7 µM	73.4 µM and 56.8 µM	10.9 µM and 6.92 µM	74.9 µM and 37 µM	–	–	0.0401 µM and 0.034 µM	> 100 µM
Nc1ncnc2c1ncn2Cc1ccc(C23CC4CC(CC(C4)C2)C3)c(O)c1	24.6 µM	> 100 µM	58.6 µM	> 100 µM	21.1 µM	> 100 µM	27.3 µM	> 100 µM	3.39 µM	61.2 µM	18.9 µM	> 100 µM	–	–	8.14 µM	37.5 µM
CN1c2ccccc2C(=O)Nc2cnc(Cl)nc21	–	> 100 µM	–	> 100 µM	–	–	–	> 100 µM	–	> 100 µM	–	> 100 µM	–	> 100 µM	–	> 100 µM
C[C@H](NC(=O)CCC(F)(F)F)C(=O)N[C@@H]1C(=O)N(CCO)c2ncccc2-c2ccccc21	> 100 µM	> 100 µM	> 100 µM	> 100 µM	> 100 µM	> 100 µM	> 100 µM	> 100 µM	–	–	> 100 µM	> 100 µM	> 100 µM	> 100 µM	> 100 µM	> 100 µM
COc1ncnc2c(-c3ccco3)cn(COCc3ccccc3)c12	> 50 µM	> 50 µM	–	–	> 50 µM	> 50 µM	> 50 µM	> 50 µM	> 50 µM	> 50 µM	> 50 µM	> 50 µM	22.5 µM	> 50 µM	> 50 µM	> 50 µM
C#Cc1cccc(Nc2ncnc3ccc(-c4cncc(NS(C)(=O)=O)c4)cc23)c1	1.26 µM	2.86 µM	3.47 µM	16.7 µM	1.92 µM	11.5 µM	2.07 µM	12.8 µM	3.7 µM	16.2 µM	1.47 µM	14.1 µM	2.33 µM	11.2 µM	–	–
